How the values were obtained:
[1] = system: UACC-62; assay type: cell-based; conditions: one dose 10^-5 M, 48 h
[2] = system: MALME-3M; assay type: cell-based; conditions: one dose 10^-5 M, 48 h
[3] = system: KM12; assay type: cell-based; conditions: one dose 10^-5 M, 48 h
[4] = system: OVCAR-5; assay type: cell-based; conditions: one dose 10^-5 M, 48 h
[5] = system: RPMI-8226; assay type: cell-based; conditions: one dose 10^-5 M, 48 h
[6] = system: T-47D; assay type: cell-based; conditions: one dose 10^-5 M, 48 h
[7] = system: HL-60(TB); assay type: cell-based; conditions: one dose 10^-5 M, 48 h
[8] = system: SNB-19; assay type: cell-based; conditions: one dose 10^-5 M, 48 h
[9] = system: UO-31; assay type: cell-based; conditions: one dose 10^-5 M, 48 h
[10] = system: HOP-62; assay type: cell-based; conditions: one dose 10^-5 M, 48 h
[11] = system: SNB-75; assay type: cell-based; conditions: one dose 10^-5 M, 48 h
[12] = system: SR; assay type: cell-based; conditions: one dose 10^-5 M, 48 h
[13] = system: OVCAR-3; assay type: cell-based; conditions: one dose 10^-5 M, 48 h
[14] = system: COLO 205; assay type: cell-based; conditions: one dose 10^-5 M, 48 h
[15] = system: EKVX; assay type: cell-based; conditions: one dose 10^-5 M, 48 h
[16] = system: BT-549; assay type: cell-based; conditions: one dose 10^-5 M, 48 h
[17] = system: A498; assay type: cell-based; conditions: one dose 10^-5 M, 48 h
[18] = system: TK-10; assay type: cell-based; conditions: one dose 10^-5 M, 48 h
[19] = system: HCC-2998; assay type: cell-based; conditions: one dose 10^-5 M, 48 h
[20] = system: PC-3; assay type: cell-based; conditions: one dose 10^-5 M, 48 h
[21] = system: HCT-15; assay type: cell-based; conditions: one dose 10^-5 M, 48 h
[22] = system: NCI/ADR-RES; assay type: cell-based; conditions: one dose 10^-5 M, 48 h
[23] = system: ACHN; assay type: cell-based; conditions: one dose 10^-5 M, 48 h
[24] = system: SW-620; assay type: cell-based; conditions: one dose 10^-5 M, 48 h
[25] = system: HT29; assay type: cell-based; conditions: one dose 10^-5 M, 48 h
[26] = system: UACC-257; assay type: cell-based; conditions: one dose 10^-5 M, 48 h
[27] = system: IGROV1; assay type: cell-based; conditions: one dose 10^-5 M, 48 h
[28] = system: MOLT-4; assay type: cell-based; conditions: one dose 10^-5 M, 48 h
[29] = system: MDA-MB-468; assay type: cell-based; conditions: one dose 10^-5 M, 48 h
[30] = system: M14; assay type: cell-based; conditions: one dose 10^-5 M, 48 h
[31] = system: DU-145; assay type: cell-based; conditions: one dose 10^-5 M, 48 h
[32] = system: CCRF-CEM; assay type: cell-based; conditions: one dose 10^-5 M, 48 h
[33] = system: SF-268; assay type: cell-based; conditions: one dose 10^-5 M, 48 h
[34] = system: OVCAR-4; assay type: cell-based; conditions: one dose 10^-5 M, 48 h
[35] = system: SK-OV-3; assay type: cell-based; conditions: one dose 10^-5 M, 48 h
[36] = system: full NCI 60 cell lines panel; conditions: for activity on all 60 cancer cell lines tested (in words): one dose; for Mean % growth: one dose 10^-5 M, 48 h, mean over all cell lines
[37] = system: SN12C; assay type: cell-based, human; conditions: one dose 10^-5 M, 48 h
[38] = system: NCI-H226; assay type: cell-based; conditions: one dose 10^-5 M, 48 h
[39] = system: K-562; assay type: cell-based; conditions: one dose 10^-5 M, 48 h
[40] = system: U251; assay type: cell-based; conditions: one dose 10^-5 M, 48 h
[41] = system: NCI-H522; assay type: cell-based; conditions: one dose 10^-5 M, 48 h
[42] = system: SK-MEL-2; assay type: cell-based; conditions: one dose 10^-5 M, 48 h
[43] = system: SK-MEL-5; assay type: cell-based; conditions: one dose 10^-5 M, 48 h
[44] = system: HCT-116; assay type: cell-based; conditions: one dose 10^-5 M, 48 h
[45] = system: HOP-92; assay type: cell-based; conditions: one dose 10^-5 M, 48 h
[46] = system: SF-539; assay type: cell-based; conditions: one dose 10^-5 M, 48 h
[47] = system: SF-295; assay type: cell-based; conditions: one dose 10^-5 M, 48 h
[48] = system: HS 578T; assay type: cell-based; conditions: one dose 10^-5 M, 48 h; HS 578T
[49] = system: CAKI-1; assay type: cell-based; conditions: one dose 10^-5 M, 48 h
[50] = system: NCI-H23; assay type: cell-based; conditions: one dose 10^-5 M, 48 h
[51] = system: MDA-MB-435; assay type: cell-based; conditions: one dose 10^-5 M, 48 h
[52] = system: NCI-H460; assay type: cell-based; conditions: one dose 10^-5 M, 48 h
[53] = system: OVCAR-8; assay type: cell-based; conditions: one dose 10^-5 M, 48 h
[54] = system: MCF7; assay type: cell-based; conditions: one dose 10^-5 M, 48 h
[55] = system: A549/ATCC; assay type: cell-based; conditions: one dose 10^-5 M, 48 h
[56] = system: MDA-MB-231/ATCC; assay type: cell-based; conditions: one dose 10^-5 M, 48 h
[57] = system: LOX IMVI; assay type: cell-based; conditions: one dose 10^-5 M, 48 h
[58] = system: SK-MEL-28; assay type: cell-based; conditions: one dose 10^-5 M, 48 h
[59] = system: 786-0; assay type: cell-based; conditions: one dose 10^-5 M, 48 h

Which results are given for “3-Amino-4-[4-(dimethylamino)phenyl]-1H-pyrazolo[3,4-d]pyrimidine-6-thiol [Compound 3a]”?
% growth [1]: 97.30%; % growth [2]: 102.71%; % growth [3]: 97.17%; % growth [4]: 107.30%; % growth [5]: 86.49%; % growth [6]: 102.75%; % growth [7]: 89.88%; % growth [8]: 101.52%; % growth [9]: 58.31%; % growth [10]: 108.87%; % growth [11]: 116.67%; % growth [12]: 90.80%; % growth [13]: 116.36%; % growth [14]: 120.31%; % growth [15]: 97.12%; % growth [16]: 95.32%; % growth [17]: 162.31%; % growth [18]: 119.65%; % growth [19]: 108.59%; % growth [20]: 78.25%; % growth [21]: 95.53%; % growth [22]: 103.45%; % growth [23]: 92.14%; % growth [24]: 115.71%; % growth [25]: 108.47%; % growth [26]: 110.00%; % growth [27]: 104.23%; % growth [28]: 100.00%; % growth [29]: 115.89%; % growth [30]: 99.09%; % growth [31]: 116.81%; % growth [32]: 77.55%; % growth [33]: 105.34%; % growth [34]: 103.10%; % growth [35]: 107.23%; activity on all 60 cancer cell lines tested (in words) [36]: weak activity; Mean % growth [36]: 103.40%; % growth [37]: 100.69%; % growth [38]: 95.19%; % growth [39]: 102.48%; % growth [40]: 109.49%; % growth [41]: 92.08%; % growth [42]: 111.64%; % growth [43]: 104.39%; % growth [44]: 101.11%; % growth [45]: 116.09%; % growth [46]: 108.53%; % growth [47]: 105.95%; % growth [48]: 108.39%; % growth [49]: 92.97%; % growth [50]: 98.77%; % growth [51]: 109.49%; % growth [52]: 108.52%; % growth [53]: 104.18%; % growth [54]: 88.54%; % growth [55]: 110.12%; % growth [56]: 98.99%; % growth [57]: 97.52%; % growth [58]: 112.69%; % growth [59]: 109.39%

What does the source list for “4-Amino-6-[4-(dimethylamino)phenyl]-2-mercaptopyrimidine-5-carboximidohydrazide [Compound 2a]”?
% growth [1]: 96.91%; % growth [2]: 100.97%; % growth [3]: 103.89%; % growth [4]: 116.97%; % growth [5]: 98.02%; % growth [6]: 99.52%; % growth [7]: 99.62%; % growth [8]: 101.46%; % growth [9]: 69.66%; % growth [10]: 107.78%; % growth [11]: 115.82%; % growth [12]: 102.70%; % growth [13]: 105.79%; % growth [14]: 134.76%; % growth [15]: 95.76%; % growth [16]: 106.15%; % growth [17]: 129.90%; % growth [18]: 112.54%; % growth [19]: 114.82%; % growth [20]: 87.24%; % growth [21]: 103.47%; % growth [22]: 104.56%; % growth [23]: 99.26%; % growth [24]: 105.68%; % growth [25]: 107.55%; % growth [26]: 109.40%; % growth [27]: 109.01%; % growth [28]: 109.54%; % growth [29]: 117.68%; % growth [30]: 103.05%; % growth [31]: 111.10%; % growth [32]: 91.59%; % growth [33]: 101.57%; % growth [34]: 96.78%; % growth [35]: 120.70%; activity on all 60 cancer cell lines tested (in words) [36]: weak activity; Mean % growth [36]: 105.50%; % growth [37]: 106.67%; % growth [38]: 96.50%; % growth [39]: 103.46%; % growth [40]: 106.99%; % growth [41]: 100.34%; % growth [42]: 117.18%; % growth [43]: 104.41%; % growth [44]: 103.97%; % growth [45]: 114.12%; % growth [46]: 107.89%; % growth [47]: 112.06%; % growth [48]: 111.82%; % growth [49]: 93.33%; % growth [50]: 104.78%; % growth [51]: 114.53%; % growth [52]: 102.69%; % growth [53]: 116.82%; % growth [54]: 86.35%; % growth [55]: 107.34%; % growth [56]: 103.57%; % growth [57]: 101.99%; % growth [58]: 108.97%; % growth [59]: 105.86%

From publication PMC10866072, “Design, synthesis, molecular modelling and biological evaluation of novel 6-amino-5-cyano-2-thiopyrimidine derivatives as potent anticancer agents against leukemia and apoptotic inducers” (Journal of Enzyme Inhibition and Medicinal Chemistry, 2024)
